Molecules are shown by their SMILES. Calls of active or inactive are those of the source.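 Rule for the calls: active = growth down by 35% or more in duplicate, reached at no more than twice the top tested dose; inactive = growth raised instead, and the rest.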 Some results are limits rather than exact numbers.

Test system in one test: not listed separately
Nature of the test: Pseudomonas aeruginosa growth inhibition with EDDHA – absorbance, plate reader, cherry-picks, dose response (AID 602389). Conditions: P. aeruginosa growth with EDDHA, OD600, 24-30 h; at 50 µM (top of the series).
For the molecule `Cc1ccc(C)c(S(=O)(=O)NC2CCSC2=O)c1` (configuration not stated), the growth change, negative = inhibition was -4.84% (inactive).

In the case of `Cc1ccc(O)c(C(=O)/C=C/c2ccc3c(c2)OCCO3)c1`, the growth change, negative = inhibition is 19.8% (inactive).

Take `COc1ccc(C(C#N)c2ccc(Cl)nn2)cc1` (configuration not stated): the growth change, negative = inhibition was -3.93% (inactive).

On to `Cc1cc(NC(=O)c2cc([N+](=O)[O-])cc([N+](=O)[O-])c2C)no1`, for which the growth change, negative = inhibition was 5.73% (inactive).

Turning to `CCOC(=O)c1cc2c(s1)-c1c(C)cccc1OC2`, the growth change, negative = inhibition was 6.54% (inactive).

For `Cn1cccc1C(=O)OCc1cc(-c2ccco2)on1`, the growth change, negative = inhibition was 6.86% (inactive).

On to `CCOC(=O)N1CCN(c2ccc(Cl)cc2)CC1`, for which the growth change, negative = inhibition is -0.021% (inactive).

With `Cc1cc(NC(=O)c2cc([N+](=O)[O-])ccc2Cl)no1`, the growth change, negative = inhibition was 24.8% (inactive).

For `O=C(NC1CCCC1)c1cccc(Cl)c1`, the growth change, negative = inhibition is 7.87% (inactive).

As for `O=C(NC1CCCC1)c1cc(Cl)ccc1[N+](=O)[O-]`, the growth change, negative = inhibition is 7.04% (inactive).

For `CCOc1ccc(-n2cccc2C=O)cc1`, the growth change, negative = inhibition is 1.21% (inactive).

Turning to `O=S1(=O)CCOC[C@H](c2ccccc2)N1Cc1cccc(Cl)c1`, the growth change, negative = inhibition was 7.06% (inactive).

With `COc1ccc(/C(C#N)=C/c2cccnc2)cc1`, the growth change, negative = inhibition was -1.53% (inactive).

For the molecule `CCOc1ccc(CNC2CCCc3ccccc32)cc1` (configuration not stated), the growth change, negative = inhibition was 20.8% (inactive).

On to `COC(=O)c1ccc(OC(=O)c2cccs2)cc1`, for which the growth change, negative = inhibition is 6.21% (inactive).

As to `CSc1nnc(-c2ccc([N+](=O)[O-])cc2)o1`, the growth change, negative = inhibition is -9.96% (inactive).

Regarding `COc1ccc(CNCc2cccc(Cl)c2)cc1`, the growth change, negative = inhibition is 4.12% (inactive).

For the molecule `Clc1ccc2scc(CN3CCCC3)c2c1`, the growth change, negative = inhibition was -1.16% (inactive).

Take `O=C(c1cccc([N+](=O)[O-])c1)N1CC2C3C=CC(C3)C2C1` (configuration not stated): the growth change, negative = inhibition is 5.48% (inactive).

Regarding `Cn1cccc1C(C#N)c1cccc(F)c1C#N` (configuration not stated), the growth change, negative = inhibition was 7.38% (inactive).

Consider `N#CC(c1ccc(Cl)cc1)c1ncc(C(F)(F)F)cc1Cl` (configuration not stated), for which the growth change, negative = inhibition was -14% (inactive).

With `N#CC(c1ccc(Cl)cc1)c1ccc(Cl)nn1` (configuration not stated), the growth change, negative = inhibition is -4.67% (inactive).

Regarding `CC(C)N=C(NC#N)SCc1ccccc1F`, the growth change, negative = inhibition is -1.36% (inactive).

Take `O=CC1=C(c2ccccc2)Oc2ccccc2O1`: the growth change, negative = inhibition is -4.48% (inactive).

As for `O=CNC1(c2ccccc2)CCCCC1`, the growth change, negative = inhibition was -5.85% (inactive).

Another test has as its system P. aeruginosa growth with EDDHA, OD600, 24-30 h. The description is as above.
Details: not given
In the case of `O=C(NC1CCS(=O)(=O)C1)c1cccc(Br)c1` (configuration not stated), the AC35 is > 50 µM (inactive).

Regarding `N#CC(c1ccc(Cl)cc1)c1cccc(Cl)n1` (configuration not stated), the AC35 is 41.2 µM.

On to `Cc1cc(NC(=O)Nc2ccccc2[N+](=O)[O-])no1`, for which the AC35 is > 50 µM (inactive).

As to `COC(=O)c1cc(-c2ccc(Br)cc2)on1`, the AC35 is 47 µM.

Turning to `Cc1cc(C)nc(N(C#N)Cc2ccccc2)n1`, the AC35 was > 50 µM (inactive).

In the case of `c1ccn2cc(-c3ccc4c(c3)OCCO4)nc2c1`, the AC35 is > 50 µM (inactive).

As to `Cc1cccc(C(C#N)c2ccc(Cl)nn2)c1` (configuration not stated), the AC35 is > 50 µM (inactive).

The record behind these values is PubChem BioAssay AID602389 (Broad Institute, 2012).
